pEC50: −log10 of the molar value.
target: T1, human RXFP1 (Homo sapiens, UniProt Q9HBX9); test: hRXFP1 HEK293 cAMP assay (HTRF); type: cell-based; details: HEK293 cells stably expressing human RXFP1; 30 min at rt; intracellular cAMP by HTRF
T1 construct: expressed in transfected cells
T1 sequence (Q9HBX9 1-757): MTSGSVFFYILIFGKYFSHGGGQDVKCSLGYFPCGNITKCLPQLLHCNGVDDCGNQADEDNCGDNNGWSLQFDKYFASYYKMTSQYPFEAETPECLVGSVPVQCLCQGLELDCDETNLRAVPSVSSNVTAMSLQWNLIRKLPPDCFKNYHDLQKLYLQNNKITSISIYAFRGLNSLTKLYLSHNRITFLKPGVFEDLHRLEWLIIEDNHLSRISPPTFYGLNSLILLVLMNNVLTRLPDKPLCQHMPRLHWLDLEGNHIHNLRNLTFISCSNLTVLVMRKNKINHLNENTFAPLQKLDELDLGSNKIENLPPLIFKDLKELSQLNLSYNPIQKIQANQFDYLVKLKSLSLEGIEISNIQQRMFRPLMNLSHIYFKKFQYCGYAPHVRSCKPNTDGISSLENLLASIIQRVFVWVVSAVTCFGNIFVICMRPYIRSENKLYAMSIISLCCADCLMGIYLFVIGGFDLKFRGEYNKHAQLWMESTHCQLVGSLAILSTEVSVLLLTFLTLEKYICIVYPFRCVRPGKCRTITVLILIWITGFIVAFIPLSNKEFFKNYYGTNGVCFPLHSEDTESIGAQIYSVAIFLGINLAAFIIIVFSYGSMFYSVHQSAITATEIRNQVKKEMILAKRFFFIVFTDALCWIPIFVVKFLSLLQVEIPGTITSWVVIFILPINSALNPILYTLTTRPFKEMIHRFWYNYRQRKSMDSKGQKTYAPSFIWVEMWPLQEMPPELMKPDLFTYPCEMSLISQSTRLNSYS
Summary of the method: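 HEK293 cells stably expressing human RXFP1 treated 30 min at rt with compound (0.010 nM to 50 μM, 2% DMSO) in HBSS/HEPES buffer with 0.5 mM IBMX. Intracellular cAMP measured by HTRF (665/590 nm ratio) against a cAMP standard curve; potency fitted by 4-parameter logistic.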

| pEC50 | Compound |
| --- | --- |
| 6.55 | COc1ccc(C(=O)N2CCC(CO)CC2)cc1C(=O)Nc1c(C(=O)Nc2ccc(F)c(C(F)(F)F)c2)sc2cc(C(F)(F)F)ccc12 [Example 176, N-(4-fluoro-3-(trifluoromethyl)phenyl)-3-(5-(4-(hydroxymethyl)piperidine-1-carbonyl)-2-methoxy-benzamido)-6-(trifluoromethyl) benzo[b] thiophene-2-carboxamide] |
| 6.83 | COc1ccc(C(=O)N2CC(CO)C2)cc1C(=O)Nc1c(C(=O)Nc2ccc(F)c(C(F)(F)F)c2)sc2cc(C(F)(F)F)ccc12 [Example 177, N-(4-fluoro-3-(trifluoromethyl)phenyl)-3-(5-(3-(hydroxymethyl)azetidine-1-carbonyl)-2-methoxy-benzamido)-6-(trifluoromethyl) benzo[b] thiophene-2-carboxamide] |
| 8.28 | COc1ccc(C(=O)N2CC(S(C)(=O)=O)C2)cc1C(=O)Nc1c(C(=O)Nc2ccc(F)c(C(F)(F)F)c2)sc2cc(C(F)(F)F)ccc12 [Example 178, N-(4-fluoro-3-(trifluoromethyl)phenyl)-3-(2-methoxy-5-(3-(methylsulfonyl)azetidine-1-carbonyl)benzamido)-6-(trifluoromethyl) benzo[b] thiophene-2-carboxamide] |
| 6.75 | COc1ccc(C(=O)N2CC(C(C)(C)O)C2)cc1C(=O)Nc1c(C(=O)Nc2ccc(F)c(C(F)(F)F)c2)sc2cc(C(F)(F)F)ccc12 [Example 179, N-(4-fluoro-3-(trifluoromethyl)phenyl)-3-(5-(3-(2-hydroxypropan-2-yl)azetidine-1-carbonyl)-2-methoxy-benzamido)-6-(trifluoromethyl) benzo[b] thiophene-2-carboxamide] |
| 6.84 | COc1ccc(C(=O)N2CC(C)(O)C2)cc1C(=O)Nc1c(C(=O)Nc2ccc(F)c(C(F)(F)F)c2)sc2cc(C(F)(F)F)ccc12 [Example 180, N-(4-fluoro-3-(trifluoromethyl)phenyl)-3-(5-(3-hydroxy-3-methylazetidine-1-carbonyl)-2-methoxy-benzamido)-6-(trifluoromethyl) benzo[b] thiophene-2-carboxamide] |
| 6.26 | COc1ccc(C(=O)N2CC3(COC3)C2)cc1C(=O)Nc1c(C(=O)Nc2ccc(F)c(C(F)(F)F)c2)sc2cc(C(F)(F)F)ccc12 [Example 181, N-(4-fluoro-3-(trifluoromethyl)phenyl)-3-(2-methoxy-5-(2-oxa-6-azaspiro[3.3]heptane-6-carbonyl)benzamido)-6-(trifluoromethyl) benzo[b] thiophene-2-carboxamide] |
| 6.45 | COc1cc(F)c(C(=O)N2CC(C(C)(C)O)C2)cc1C(=O)Nc1c(C(=O)Nc2ccc(F)c(C(F)(F)F)c2)sc2cc(C(F)(F)F)ccc12 [Example 182, N-(4-fluoro-3-(trifluoromethyl)phenyl)-3-(4-fluoro-5-(3-(2-hydroxypropan-2-yl)azetidine-1-carbonyl)-2-methoxy-benzamido)-6-(trifluoromethyl) benzo[b] thiophene-2-carboxamide] |
| 6.08 | COc1cc(F)c(C(=O)N2CC[C@@H](O)C2)cc1C(=O)Nc1c(C(=O)Nc2ccc(F)c(C(F)(F)F)c2)sc2cc(C(F)(F)F)ccc12 [Example 183, (R)-N-(4-fluoro-3-(trifluoromethyl)phenyl)-3-(4-fluoro-5-(3-hydroxy-pyrrolidine-1-carbonyl)-2-methoxy-benzamido)-6-(trifluoromethyl) benzo[b] thiophene-2-carboxamide] |
| 6.46 | COc1cc(F)c(C(=O)N2CCC(O)CC2)cc1C(=O)Nc1c(C(=O)Nc2ccc(F)c(C(F)(F)F)c2)sc2cc(C(F)(F)F)ccc12 [Example 184, N-(4-fluoro-3-(trifluoromethyl)phenyl)-3-(4-fluoro-5-(4-hydroxypiperidine-1-carbonyl)-2-methoxy-benzamido)-6-(trifluoromethyl) benzo[b] thiophene-2-carboxamide] |
